Reference: US8877946B2, “Benzylidene-indolinone compounds and their medical use” (National University of Singapore, priority 2011, dated 2014)
≈ marks a conversion by molar mass, not a printed value. Where two headings read alike, the source gives them in different places.

Columns and labels:
HuH7 cells = test: MTT antiproliferative (growth inhibition) assay on HuH7 cells; assay type: cell-based, human; conditions: Homo sapiens, Huh-7, MTT
Outline: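 Cells were exposed to compound for 72 h at 37° C, 5% CO2, with 0.5% v/v DMSO (1% if poorly soluble), then given MTT for 3 h. Formazan was dissolved in DMSO/Sorenson buffer and absorbance read at 570 nm; IC50 from sigmoidal fits of % viability versus log concentration.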

Hep G2 = test: MTT antiproliferative assay on Hep G2 cells; assay type: cell-based; conditions: Homo sapiens, HepG2, 72 h
From the text: (§1) MTT was purchased from DUCHEFA Biochemie ([…]). Sunitinib, and sodium dodecyl sulfate, bovine serum albuminwere obtained from Sigma Aldrich (Singapore). Sorafenib was purchase from Ontario Chem. Fetal bovine serum (FBS) was obtained from Invitrogen. Human hepatocellular carcinoma cells (HuH-7 and Hep G2), and human diploid fibroblast strain (IMR 90). HuH7 was obtained as gifts from Dr Ho Han Kiat, Department of Pharmacy, NUS. IMR90 and Hep G2 were purchased from American Type Culture Collection (ATCC). HuH-7 cells were cultured in DMEM (Dulbecco's Modified Eagle Medium, high glucose) with 10% v/v fetal bovine serum (FBS), 100 mg/L penicillin G and 100 mg/L streptomycin. IMR 90 cell were cultured in EMEM (Eagle's Minimum Essential Medium), with 10% v/v FBS and 100 mg/L penicillin G and 100 mg/L streptomycin. The cells were sub-cultured when HuH7 or Hep G2 reached a density of 70-80×10^5 cell/T75 flask, and IMR 90 reached 20×10^5 cell/T75 flask. Cells were used within 2-10 passages for viability experiments.
(§2) The anti-proliferative activity of the test compounds were determined by the MTT assay. An aliquot (200 μL, 3×10^4 cells/mL for HuH7, 3.75×10^4 cells/mL for Hep G2, and 2×10^4 cells/mL for IMR 90) of medium was added to each well of the microtitre plate. […] The existing medium was removed from each well and replaced by fresh medium (200 μL) containing a known concentration of test compound. The final concentration of DMSO in each well was maintained at 0.5% v/v. (1% v/v was also utilized if the compounds were not soluble) The test compounds were incubated with the cells for another 72 h at 37 deg C., 5% CO2. The medium was then removed from the well and replaced with FBS free medium (200 μL) and MTT (50 μL of 2 mg/mL solution in phosphate buffer saline, pH 7.4). The phosphate buffer saline comprises 10 mM of potassium phosphate and 137 mM sodium chloride. After incubation (3 h) at 37 deg C., 5% CO2, the supernatant was removed and a solution of 200 μL DMSO and 25 μL Sorenson buffer (0.1 M glycine, 0.1 M sodium chloride, adjusted to pH 10.5 with 0.1 M sodium hydroxide) was added to dissolve the formazan crystals in each well. Vehicle control were cells grown in 1% v/v DMSO/Medium for 72 h, 37 deg C., 5% CO2 while blank controls were wells that contained only 200 μL DMSO and 25 μL Sorenson buffer. Absorbances were measured at 570 nm on a microplate reader (Tecan, Infinite 200). The viability of cells at a given concentration of test compound was determined from the expression:
(§3) [formula] where abs_compound=absorbance of wells containing cells and test compound, abs_vehicle (Not the same as above. Change to abs_vehicle)=absorbance of vehicle control and abs_blank=absorbance of blank control.
(§4) Each concentration of test compound was evaluated at least 3 times on separate occasions, and two different stock solution were used. The IC50 value (concentration that inhibited 50% of cell growth) was determined from the sigmoidal curve obtained by plotting percentage viability versus logarithmic concentration of test compound using GraphPad Prism 5 (San Diego, USA).

IMR 90 = test: MTT antiproliferative assay on non-malignant IMR 90 fibroblasts; assay type: cell-based; conditions: non-malignant human lung fibroblast IMR 90, MTT, 72 h
From the text: as §1, §2, §3, §4

AFP mRNA = test: Determination of AFP mRNA levels by quantitative real-time PCR in HuH7 cells; assay type: cell-based, human; conditions: 10 μM, 24 h, FIG. 1
From the text: The primer sequences were: […] reverse); [NT] (Human GADPH forward); [NT] (Human GADPH reverse).

CYP1A1 = test: EROD assay, induction of CYP1A1 activity in HuH7 cells; assay type: cell-based, human; conditions: for induction of CYP450 (CYP1A1, EROD) activity: broad range of concentrations spanning growth inhibitory concentrations, FIG. 2
From the text: The induction of CYP1A1 activity was monitored by the 7-ethoxyresorufin O-deethylase (EROD) assay. EROD is a CYP1A1 enzyme and induction of its activity would result in the formation of more resorufin, a fluorescent compound. By monitoring resorufin levels in cells that are exposed to test compound and comparing the levels with those in untreated cells, it is possible to identify compounds that induce EROD activity.
Readings were taken at λexcitation of 530 nm and λemission of 590 nm on a fluorometer (Name the plate reader). Background fluorescence of the test compound was determined at the same wavelengths to take into account its contribution to the observed readings. Readings of “blank” wells that contained only media and “control” wells with only HuH7 cells in media (with 1% DMSO) were also determined. β-napthoflavone (BNF), a known inducer of CYP1A1 activity (give ref) was used as a positive control. The extent to which EROD activity was induced is given by the expression: Degree of induction=(FCells+Test Compound−FBlank)/(FControl−FBlank)
Where Fcells+test compound=fluorescence of wells containing treated cells; FBlank=fluorescence of well containing media only; FControl=fluorescence readings of wells containing untreated cells. The test compounds were not fluorescent at the excitation and emission wavelengths used in this assay. Two separate determinations were made for each concentration of test compound.

phospho-STAT3 (Tyr 705) = test: Detection of phosphorylated STAT3 by immunoblot in HepG2; assay type: cell-based, human; conditions: FIG. 3
Procedure: Rabbit polyclonal antibodies to STAT3 was obtained from Santa Cruz Biotechnology (Santa Cruz, Calif.), and rabbit monoclonal antibodies against phospho-STAT3 (Tyr 705) were purchased from Cell Signaling Technology (Beverly, Mass.).
For detection of phopho-STAT 3 and STAT 3, treated whole-cell extracts were lysed in lysis buffer (20 mM Tris (pH 7.4), 250 mM NaCl, 2 mM EDTA (pH 8.0), 0.1% Triton X-100, 0.01 mg/ml aprotinin, 0.005 mg/ml leupeptin, 0.4 mM PMSF, and 4 mM NaVO4). Lysates were then spun at 14,000 rpm for 10 min to remove insoluble material and resolved on a 7.5% SDS gel. After electrophoresis, the proteins were electrotransferred to a nitrocellulose membrane, blocked with 5% nonfat milk, and probed with anti-phospho-STAT 3 and anti-STAT 3 antibodies (1:1,000) overnight at 4° C. The blot was washed, exposed to HRP-conjugated secondary antibodies for 1 hr, and finally examined by chemiluminescence (ECL; GE Healthcare, Little Chalfont, Buckinghamshire, UK).

[1] = Aqueous solubility on Multiscreen Solubility filter plates; assay type: physicochemical; conditions: aqueous solution on Multiscreen Solubility filter plates, aqueous buffer, kinetic from dmso stock, mean of 3 determinations; for solubility at 3 h: pH 7.4, agitation time 3 h; for solubility at 24 h: pH 7.4, agitation time 24 h
Procedure: (§5) Solubility and PAMPA permeability (Pe) are important physicochemical indicators of drug-like character. Determination of aqueous solubility was carried out on Multiscreen® Solubility filter plates (Millipore-MSSLBPC10) from Millipore Corporation (MA, USA). The protocol (PC2445EN00, Millipore Corporation) was followed. Pe determinations were carried out on MultiScreen-IP PAMPA assay (donor) plates (MAIPNTR10) and MultiScreen Receiver Plates (MATRNPS50) from Millipore Corporation (USA) with 1% lecithin (L-α-phosphatidylcholine from lyophilized powder of egg yolk, Sigma Aldrich, USA) in dodecane (ReagentPlus®, Sigma Aldrich, USA) as lipid barrier.

PAMPA permeability (Pe) = assay type: physicochemical; conditions: for Pe (×10^−6 cm/s): 1% lecithin in dodecane, mean of 3 determinations
Procedure: as §5

[2] = 72 h (Table 9), read-out: IC50 (μM) HuH7
[3] = 72 h incubation, mean and SD of 3 or more independent determinations (Tables 1-8), read-out: IC 50

IC50 (HuH7 cells; [2]) [µM] | IC50 (HuH7 cells; [3]) [µM] | solubility at 3 h [1] [µM] | solubility at 24 h [1] [µM] | decline of Pe with time (PAMPA permeability (Pe); 6 h to 16 h) | Pe (×10^−6 cm/s) (PAMPA permeability (Pe); pH 7.4, 6 h) | Pe (×10^−6 cm/s) (PAMPA permeability (Pe); pH 7.4, 16 h) | induction of EROD activity at 0.05 μM (CYP1A1; 0.05 μM, declined at higher concentrations) | SMILES | IC50 (Hep G2) [µM] | IC50 (IMR 90) [µM] | effect on AFP mRNA levels (AFP mRNA) | induction of CYP450 (CYP1A1, EROD) activity (CYP1A1) | effect on p-STAT3 levels (constitutive STAT3 activation) (phospho-STAT3 (Tyr 705))
0.54 ± 0.07 | 0.54 ± 0.07 |  |  |  |  |  |  | O=C1Nc2ccc(F)c(F)c2/C1=C/c1cccc(C(F)(F)F)c1 [Compound 6-6, (Z)-4,5-Difluoro-3-(3-trifluoromethyl-benzylidene)-1,3-dihydro-indol-2-one] | 0.96 ± 0.11 | 8.1 ± 0.73 | reduced levels to almost the same extent as 1-10 | did not induce CYP450 activity | did not
0.82 ± 0.2 | 0.82 ± 0.2 |  |  |  |  |  |  | O=C1Nc2cc(F)c(F)cc2/C1=C\c1cccc(C(F)(F)F)c1 [Compound 7-6, (E)-5,6-Difluoro-3-(3-trifluoromethyl-benzylidene)-1,3-dihydro-indol-2-one] | 0.69 ± 0.02 | 8.53 ± 0.6 |  |  | 
0.46 ± 0.06 | 0.46 ± 0.06 |  |  |  |  |  | unusual (but reproducible) induction | CN1C(=O)/C(=C/c2cccc(C(F)(F)F)c2)c2ccc(Cl)cc21 [Compound 1-10, (E) 6-Chloro-1-methyl-3-(3-trifluoromethyl-benzylidene)-1,3-dihydro-indol-2-one, reference compound] | 0.94 ± 0.18 | 9.23 ± 0.88 | reduced AFP mRNA by almost half | did not induce CYP450 activity | did not
0.81 ± 0.11 | 0.81 ± 0.11 |  |  |  |  |  |  | O=C1Nc2ccc(Cl)cc2/C1=C\c1cccc(C(F)(F)F)c1 [Compound 2-7, (E)-5-Chloro-3-(3-(trifluoromethyl)benzylidene)-1,3-dihydro-indol-2-one, reference compound] | 1.5 ± 0.06 | 9.13 ± 1.12 |  |  | 

Second part, the molecule before the results:

SMILES | IC50 (HuH7 cells; [2]) [µM] | IC50 (HuH7 cells; [3]) [µM] | solubility at 3 h [1] [µM] | solubility at 24 h [1] [µM] | decline of Pe with time (PAMPA permeability (Pe); 6 h to 16 h) | Pe (×10^−6 cm/s) (PAMPA permeability (Pe); pH 7.4, 6 h) | Pe (×10^−6 cm/s) (PAMPA permeability (Pe); pH 7.4, 16 h) | induction of EROD activity at 0.05 μM (CYP1A1; 0.05 μM, declined at higher concentrations) | IC50 (Hep G2) [µM] | IC50 (IMR 90) [µM] | effect on AFP mRNA levels (AFP mRNA) | induction of CYP450 (CYP1A1, EROD) activity (CYP1A1) | effect on p-STAT3 levels (constitutive STAT3 activation) (phospho-STAT3 (Tyr 705))
CNS(=O)(=O)c1cccc(/C=C2/C(=O)Nc3cc(F)ccc32)c1 [Compound 3-10, (E)-3-(6-Fluoro-2-oxo-1,2-dihydro-indol-3-ylidenemethyl)-N-methyl-benzenesulphonamide] | 0.48 ± 0.01 | 0.48 ± 0.01 | 37.6 (≈ 12.5 µg/mL) | 6.32 (≈ 2.1 µg/mL) | ½ | 12.9 ×10^−6 cm/s | 5.95 ×10^−6 cm/s |  | 4.4 ± 0.43 | 10.4 ± 0.23 |  | did not induce CYP450 activity | 
CNS(=O)(=O)c1cccc(/C=C2/C(=O)Nc3cc(Cl)ccc32)c1 [Compound 1-18, (E)-3-(6-Chloro-2-oxo-1,2-dihydro-indol-3-ylidenemethyl)-N-methyl-benzenesulfonamide] | 0.54 ± 0.06 | 0.54 ± 0.06 | 8.85 (≈ 3.09 µg/mL) | 2.28 (≈ 0.795 µg/mL) |  | 18.3 ×10^−6 cm/s | 12.3 ×10^−6 cm/s |  | 3.99 ± 0.43 | 2.1 | no significant change in AFP mRNA levels | did not induce CYP450 activity | reduced p-STAT3 levels
CNC(=O)c1cc(Oc2ccc(NC(=O)Nc3ccc(Cl)c(C(F)(F)F)c3)cc2)ccn1 [Sorafenib, reference compound] | 5.35 ± 0.49 |  |  |  |  |  |  |  | 5.6 ± 0.21 | 11 ± 1.72 |  |  | 
CNS(=O)(=O)c1cccc(/C=C2/C(=O)Nc3ccc(F)cc32)c1 [Compound 4-16, (E)-3-(5-Fluoro-2-oxo-1,2-dihydro-indol-3-ylidenemethyl)-N-methyl-benzenesulphonamide] | 1.18 ± 0.02 | 1.18 ± 0.02 |  |  |  |  |  |  | 9.11 ± 0.32 | 9.92 ± 0.57 |  |  | 
